Patent US8546574B2, “Conglomerates of tenatoprazole potassium salts” (priority 2006, dated 2013)
Each block holds one molecule with its values, some of them ahead of it.

Key:
[1] = Solubility of the racemic potassium salt solvated in methanol in methanolic potassium hydroxide solution; type: physicochemical; conditions: KOH excess about 0.2 molar equivalent
[2] = Solubility of the racemic potassium salt solvated with ethanol in ethanolic potassium hydroxide solution; type: physicochemical; conditions: KOH excess about 0.2 molar equivalent
[3] = Solubility of the racemic potassium salt solvated with ethylene glycol in ethanol/ethylene glycol mixture (80% V-20% V) with potassium hydroxide excess; type: physicochemical; conditions: ethanol/ethylene glycol (80% V-20% V), KOH excess about 0.2 molar equivalent
[4] = compared with S-tenatoprazole itself and other proton-pump inhibitors; cited from earlier work
[5] = cited from earlier work
gastric lesions = conditions: compared with the other known proton-pump inhibitors; cited from earlier work
[6] = relative to the other proton-pump inhibitors, for instance omeprazole or lansoprazole

Compound: COc1ccc2[nH]c([S+]([O-])Cc3ncc(C)c(OC)c3C)nc2n1.O.[Na] (stereo not shown) [S-tenatoprazole sodium salt monohydrate]
solubility [4]: excellent solubility

Compound: COc1ccc2[nH]c([S@@+]([O-])Cc3ncc(C)c(OC)c3C)nc2n1 [S-tenatoprazole]
pharmacokinetic properties ([5]; compared with the racemic mixture and the enantiomer of R configuration): significantly different

Compound: COc1ccc2nc([S+]([O-])Cc3ncc(C)c(OC)c3C)[nH]c2n1 (stereo not shown) [tenatoprazole, 5-methoxy-2-[[(4-methoxy-3,5-dimethyl-2-pyridyl)methyl]sulfinyl]imidazo[4,5-b]pyridine]
duration of action [5, 6]: markedly longer duration of action
plasmatic half-life [5, 6]: about seven times greater
level of relief of the symptoms and of cicatrization of gastric lesions (gastric lesions): greater level of relief of the symptoms and of cicatrization of gastric lesions

The remaining lines, values ahead:

Solubility (mass %) ([1]; 30 ° C.): 4.4 mass %
Solubility (mass %) ([1]; 38 ° C.): 5.2 mass %
Solubility (mass %) ([1]; 40 ° C.): 6.5 mass %
Solubility (mass %) ([1]; 42 ° C.): 7.7 mass %
Solubility (mass %) ([1]; 56 ° C.): 12.2 mass %
Compound: COc1ccc2nc([S+]([O-])Cc3ncc(C)c(OC)c3C)[n-]c2n1.[K+] (racemic) [racemic mixture of the potassium salt solvated in methanol, potassium tenatoprazole dimethanolate]

Solubility (mass %) ([2]; 33.9 ° C.): 4.24 mass %
Solubility (mass %) ([2]; 37 ° C.): 5.3 mass %
Compound: COc1ccc2nc([S+]([O-])Cc3ncc(C)c(OC)c3C)[n-]c2n1.[K+] (racemic) [racemic mixture of the potassium salt solvated with ethanol, potassium tenatoprazole diethanolate]

Solubility (mass %) ([3]; 28 ° C.): 20.3 mass %
Solubility (mass %) ([3]; 32 ° C.): 24 mass %
Solubility (mass %) ([3]; 34.5 ° C.): 25.6 mass %
Solubility (mass %) ([3]; 39 ° C.): 33.5 mass %
Compound: COc1ccc2nc([S+]([O-])Cc3ncc(C)c(OC)c3C)[n-]c2n1.[K+] (racemic) [racemic mixture of the potassium salt solvated with ethylene glycol, potassium tenatoprazole ethylene glycolate]
